Measured values: US20180113128A1, “DETECTION OF URINARY TRACT INFECTIONS” (ISI Life Sciences, Inc., priority 2016, published 2018)

Assays:
Type in all cases: biochemical
leukocyte esterases = experiment: Fourth in vitro test: pro-label contacted with blood lysate
Description: Certain E. coli species are a common cause of UTIs. […] So, unlike Example 3 where E. coli was used in the absence of blood components, this example evaluates the results of whether a blood lysate would deacylate the ester bonds of pro-labels. Specifically, this example evaluates if these esterases are present in sufficient quantities in the lysate to effect transformation of the pro-labels to labels by deacylation. Accordingly, fluorescein dioctanoate (a non-fluorescent pro-label) was contacted with a blood lysate. A control composition (phosphate buffered saline) containing the same pro-label was prepared. […] The first column contains the control and the second column contains the pro-labeled solution. This figure is taken at time equal to zero. […] As before, the left column is control and the right column is the blood lysate in the presence of fluorescein dioctanoate. […] As to the greenish tinge around the control test tubes, it is postulated that this is the result of reflection from the bright green fluorescence of the adjacent tubes (not shown). Those tubes were removed from FIG. 4 so as to allow a direct comparison between the control and fluorescein dioctanoate.

urease [1] = experiment: Second in vitro test: pro-label in normal human urine with or without urease; settings: room temperature, approximately 10 minutes
Description: In this example, fluorescein dioctanoate (a non-fluorescent derivative of fluorescein and a pro-label) was combined with normal urine recently obtained from a volunteer. The urine was divided into two containers. The first container (A) contained fluorescein dioctanoate added as a 1% solution in DMSO. The second container (B) additionally contained urease.
Both samples were maintained at room temperature for approximately 10 minutes and the samples were then evaluated for fluorescence. As is well known, the fluorescence emitted by fluorescein is typically a greenish-yellow color.

urease [2] = experiment: In vitro test demonstrating breakage of ester bonds (urea buffers with or without urease, 96 well); settings: ten minutes
Description: Two different fluorescein diesters were used in this example. These diesters were fluorescein dibutyrate and fluorescein dioctanoate both of which are commercially available or can be prepared by reacting fluorescein under conventional esterification techniques using as acid anhydrides, acid chlorides, etc. as described herein. The structure of fluorescein diesters is as set forth below:
A. Fluorescein dibutryate (each R is —CH2CH2CH2CH3) B. Fluorescein dioctanoate (each R is —CH2CH2CH2CH2CH2CH3) • The assay was conducted with the following: 1. Assay Buffer A: 0.5 M Urea in phosphate buffered saline, pH 7 (freshly prepared from solid urea). 2. Assay Buffer B: Assay Buffer A plus 0.05% bovine serum albumin 3. Urease: 2000 u/mL in phosphate buffered saline (PBS). This equates to about 40 mg per mL. 4. Fluorescein diesters are dissolved in water with 1% DMSO.
100 microliters of PBS, Assay Buffer A, or Assay Buffer B were added to wells of a 96 well cluster. • 10 microliters of urease were added to the indicated wells. • 5 microliters of each diester were added to each well.
The wells were monitored for ten minutes at which time a photograph was taken.

[3] = Buffer A: 0.5 M urea in PBS pH 7, no urease
[4] = Buffer B: Buffer A plus 0.05% bovine serum albumin, no urease

Structure (SMILES) | fluorescence upon application of UV light (leukocyte esterases; blood lysate, incubation for 90 minutes) | fluorescence upon application of UV light (leukocyte esterases; control composition (phosphate buffered saline) containing the same pro-label, 90 minutes) | fluorescein fluorescence in urine sample (urease [1]; normal human urine plus urease (container B)) | fluorescein fluorescence in urine sample (urease [1]; normal human urine, no urease (container A)) | fluorescence (photograph) (urease [2]; [3]) | fluorescence (photograph) (urease [2]; Buffer B+urease) | fluorescence (photograph) (urease [2]; [4])
CCCCCCCC(=O)Oc1ccc2c(c1)Oc1cc(OC(=O)CCCCCCC)ccc1C21OC(=O)c2ccccc21 [fluorescein dioctanoate] | evidenced fluorescence | did not | presence of fluorescein fluorescence | lack of fluorescein fluorescence | no fluorescence | fluorescence | no to substantially no fluorescence
CCCC(=O)Oc1ccc2c(c1)Oc1cc(OC(=O)CCC)ccc1C21OC(=O)c2ccccc21 [fluorescein dibutyrate] |  |  |  |  | no fluorescence | fluorescence | minimal fluorescence
